# Measured values from patent US20230365546A1, “5-SUBSTITUTED INDOLE 3-AMIDE DERIVATIVES, PREPARATION METHOD AND USE THEREOF” (ORIGIANT PHARMACEUTICAL CO., LTD, priority 2020, published 2023).
# What was measured:
# Assay in all cases: Kinase Profiler 10 μM panel
# [1] = biological target: EphA2(h) (Homo sapiens (Human), UniProt P29317)
# Description: (§1) In vitro kinase assays were conducted using Kinase Profiler services provided by Eurofins. The experimental method was as follows: the small molecule compound to be tested (0.001-10 μM), the protein kinase to be tested were incubated with a buffer containing substrate, 10 mM magnesium acetate, and [γ-^33P-ATP], the reaction was started by adding Mg\TPmix, after incubation for a period of time at room temperature, a 3% phosphate solution was added to the buffer to stop the reaction. Subsequently, 10 μL of the reaction mixture was quantitatively pipetted onto P30 filter paper, which was washed three times with 75 mM phosphate solution and then once with methanol. The P30 filter paper was air-dried and scintillation fluid was added for scintillation counting.
# [2] = biological target: NDR2(h) (Homo sapiens (Human), UniProt Q9Y2H1)
# Description: as §1
# [3] = biological target: MINK(h) (Homo sapiens (Human), UniProt Q8N4C8)
# Description: as §1
# [4] = biological target: Abl(h) (Homo sapiens (Human), UniProt P00519)
# Description: as §1
# [5] = biological target: Tie2(Y897S)(h) (Homo sapiens (Human), UniProt Q02763, Y897S)
# Description: as §1
# [6] = biological target: GRK7(h) (Homo sapiens (Human), UniProt Q8WTQ7)
# Description: as §1
# [7] = biological target: STK32B(h) (Homo sapiens (Human), UniProt Q9NY57)
# Description: as §1
# [8] = biological target: JNK3(h) (Homo sapiens (Human), UniProt P53779)
# Description: as §1
# [9] = biological target: GCN2(h) (Homo sapiens (Human), UniProt Q9P2K8)
# Chain of GCN2(h) (Q9P2K8 whole entry): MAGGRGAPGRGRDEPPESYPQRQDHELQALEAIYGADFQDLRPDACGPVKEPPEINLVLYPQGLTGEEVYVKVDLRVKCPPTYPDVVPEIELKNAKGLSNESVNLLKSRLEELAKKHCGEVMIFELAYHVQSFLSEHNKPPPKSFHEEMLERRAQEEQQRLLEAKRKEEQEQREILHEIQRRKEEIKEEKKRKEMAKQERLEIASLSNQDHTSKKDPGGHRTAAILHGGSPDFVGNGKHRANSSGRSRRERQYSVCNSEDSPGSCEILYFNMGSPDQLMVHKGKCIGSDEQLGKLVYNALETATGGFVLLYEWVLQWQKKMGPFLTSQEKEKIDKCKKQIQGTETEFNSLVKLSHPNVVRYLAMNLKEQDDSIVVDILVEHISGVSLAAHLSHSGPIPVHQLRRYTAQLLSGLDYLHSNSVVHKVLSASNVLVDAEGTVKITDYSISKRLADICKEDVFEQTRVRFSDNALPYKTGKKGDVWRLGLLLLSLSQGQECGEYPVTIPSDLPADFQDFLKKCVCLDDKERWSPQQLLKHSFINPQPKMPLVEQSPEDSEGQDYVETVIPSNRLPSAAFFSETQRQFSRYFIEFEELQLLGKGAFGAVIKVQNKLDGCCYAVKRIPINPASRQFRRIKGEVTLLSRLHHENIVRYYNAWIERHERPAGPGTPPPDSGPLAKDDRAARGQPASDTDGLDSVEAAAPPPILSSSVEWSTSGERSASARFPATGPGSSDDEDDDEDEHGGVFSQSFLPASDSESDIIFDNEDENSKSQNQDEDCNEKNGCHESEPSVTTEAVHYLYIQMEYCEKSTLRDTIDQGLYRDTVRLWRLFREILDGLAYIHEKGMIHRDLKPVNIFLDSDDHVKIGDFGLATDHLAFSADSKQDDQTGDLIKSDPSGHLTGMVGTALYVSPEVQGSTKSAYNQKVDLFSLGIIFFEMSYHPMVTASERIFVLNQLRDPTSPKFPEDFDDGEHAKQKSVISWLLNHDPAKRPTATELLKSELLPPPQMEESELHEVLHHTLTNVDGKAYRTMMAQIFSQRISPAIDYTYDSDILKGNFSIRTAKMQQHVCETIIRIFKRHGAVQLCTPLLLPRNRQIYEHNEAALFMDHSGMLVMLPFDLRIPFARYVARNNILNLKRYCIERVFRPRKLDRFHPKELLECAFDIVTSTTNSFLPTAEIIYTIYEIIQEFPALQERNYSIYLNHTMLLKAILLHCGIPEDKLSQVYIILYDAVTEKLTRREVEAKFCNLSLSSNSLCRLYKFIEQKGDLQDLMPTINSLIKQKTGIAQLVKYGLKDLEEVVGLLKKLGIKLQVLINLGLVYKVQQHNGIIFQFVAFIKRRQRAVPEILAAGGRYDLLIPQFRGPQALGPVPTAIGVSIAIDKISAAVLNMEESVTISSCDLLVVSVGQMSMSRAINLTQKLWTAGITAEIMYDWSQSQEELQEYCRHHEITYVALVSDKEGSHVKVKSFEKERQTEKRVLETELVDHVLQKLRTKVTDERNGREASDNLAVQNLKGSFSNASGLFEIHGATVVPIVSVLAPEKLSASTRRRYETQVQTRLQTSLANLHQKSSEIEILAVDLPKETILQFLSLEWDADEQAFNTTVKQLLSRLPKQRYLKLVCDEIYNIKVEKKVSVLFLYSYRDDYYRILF
# Description: as §1
# [10] = biological target: SIK2(h) (Homo sapiens (Human), UniProt Q9H0K1)
# Description: as §1
# [11] = biological target: ALK6(h) (Homo sapiens (Human), UniProt O00238)
# Description: as §1
# [12] = biological target: Met(Y1248H)(h) (Homo sapiens (Human), UniProt P08581, Y1230H)
# Description: as §1
# [13] = biological target: NEK4(h) (Homo sapiens (Human), UniProt P51957)
# Description: as §1
# [14] = biological target: MuSK(h) (Homo sapiens (Human), UniProt O15146)
# Description: as §1
# [15] = biological target: TAO3(h) (Homo sapiens (Human), UniProt Q9H2K8)
# [16] = biological target: ErbB2(h) (Homo sapiens (Human), UniProt P04626)
# Description: as §1
# [17] = biological target: VRK1(h) (Homo sapiens (Human), UniProt Q99986)
# Description: as §1
# [18] = biological target: NEK9(h) (Homo sapiens (Human), UniProt Q8TD19)
# Description: as §1
# [19] = biological target: Ros(h) (Homo sapiens (Human), UniProt P08922)
# Description: as §1
# [20] = biological target: CDK13/cyclinK(h) (Homo sapiens (Human), UniProt Q14004); type: biochemical
# Description: as §1
# [21] = biological target: DCAMKL2(h) (Homo sapiens (Human), UniProt Q8N568)
# Description: as §1
# [22] = biological target: DYRK1A(h) (Homo sapiens (Human), UniProt Q13627)
# Description: as §1
# [23] = biological target: PI3 Kinase (p110a/p65a)(h) (Homo sapiens (Human), UniProt P42336)
# Description: as §1
# [24] = biological target: NEK11(h) (Homo sapiens (Human), UniProt Q8NG66)
# Description: as §1
# [25] = biological target: HPK1(h) (Homo sapiens (Human), UniProt Q92918)
# Chain of HPK1(h) (Q92918 whole entry): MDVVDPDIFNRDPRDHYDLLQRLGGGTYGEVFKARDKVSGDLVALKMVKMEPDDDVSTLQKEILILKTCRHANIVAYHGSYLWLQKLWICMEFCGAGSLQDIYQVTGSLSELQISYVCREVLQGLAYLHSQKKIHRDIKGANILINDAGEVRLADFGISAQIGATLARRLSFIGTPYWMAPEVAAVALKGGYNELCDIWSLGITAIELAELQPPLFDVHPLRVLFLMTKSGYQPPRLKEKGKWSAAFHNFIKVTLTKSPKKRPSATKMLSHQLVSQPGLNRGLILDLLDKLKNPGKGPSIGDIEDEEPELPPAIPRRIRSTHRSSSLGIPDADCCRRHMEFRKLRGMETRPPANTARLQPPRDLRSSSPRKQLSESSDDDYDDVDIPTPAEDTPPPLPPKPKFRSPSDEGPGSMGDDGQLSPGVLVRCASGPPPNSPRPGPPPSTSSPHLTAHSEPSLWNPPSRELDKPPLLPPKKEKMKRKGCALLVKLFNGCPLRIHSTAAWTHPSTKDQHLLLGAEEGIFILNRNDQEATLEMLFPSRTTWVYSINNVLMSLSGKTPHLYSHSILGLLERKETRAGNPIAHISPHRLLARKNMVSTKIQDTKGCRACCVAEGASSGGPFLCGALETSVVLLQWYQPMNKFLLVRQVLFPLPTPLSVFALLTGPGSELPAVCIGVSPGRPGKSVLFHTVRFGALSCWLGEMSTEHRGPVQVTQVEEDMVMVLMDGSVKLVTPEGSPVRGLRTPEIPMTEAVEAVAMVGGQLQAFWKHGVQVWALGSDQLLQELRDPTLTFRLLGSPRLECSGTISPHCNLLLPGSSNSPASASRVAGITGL
# Description: as §1
# [26] = biological target: WNK2(h) (Homo sapiens (Human), UniProt Q9Y3S1)
# Chain of WNK2(h) (Q9Y3S1 whole entry): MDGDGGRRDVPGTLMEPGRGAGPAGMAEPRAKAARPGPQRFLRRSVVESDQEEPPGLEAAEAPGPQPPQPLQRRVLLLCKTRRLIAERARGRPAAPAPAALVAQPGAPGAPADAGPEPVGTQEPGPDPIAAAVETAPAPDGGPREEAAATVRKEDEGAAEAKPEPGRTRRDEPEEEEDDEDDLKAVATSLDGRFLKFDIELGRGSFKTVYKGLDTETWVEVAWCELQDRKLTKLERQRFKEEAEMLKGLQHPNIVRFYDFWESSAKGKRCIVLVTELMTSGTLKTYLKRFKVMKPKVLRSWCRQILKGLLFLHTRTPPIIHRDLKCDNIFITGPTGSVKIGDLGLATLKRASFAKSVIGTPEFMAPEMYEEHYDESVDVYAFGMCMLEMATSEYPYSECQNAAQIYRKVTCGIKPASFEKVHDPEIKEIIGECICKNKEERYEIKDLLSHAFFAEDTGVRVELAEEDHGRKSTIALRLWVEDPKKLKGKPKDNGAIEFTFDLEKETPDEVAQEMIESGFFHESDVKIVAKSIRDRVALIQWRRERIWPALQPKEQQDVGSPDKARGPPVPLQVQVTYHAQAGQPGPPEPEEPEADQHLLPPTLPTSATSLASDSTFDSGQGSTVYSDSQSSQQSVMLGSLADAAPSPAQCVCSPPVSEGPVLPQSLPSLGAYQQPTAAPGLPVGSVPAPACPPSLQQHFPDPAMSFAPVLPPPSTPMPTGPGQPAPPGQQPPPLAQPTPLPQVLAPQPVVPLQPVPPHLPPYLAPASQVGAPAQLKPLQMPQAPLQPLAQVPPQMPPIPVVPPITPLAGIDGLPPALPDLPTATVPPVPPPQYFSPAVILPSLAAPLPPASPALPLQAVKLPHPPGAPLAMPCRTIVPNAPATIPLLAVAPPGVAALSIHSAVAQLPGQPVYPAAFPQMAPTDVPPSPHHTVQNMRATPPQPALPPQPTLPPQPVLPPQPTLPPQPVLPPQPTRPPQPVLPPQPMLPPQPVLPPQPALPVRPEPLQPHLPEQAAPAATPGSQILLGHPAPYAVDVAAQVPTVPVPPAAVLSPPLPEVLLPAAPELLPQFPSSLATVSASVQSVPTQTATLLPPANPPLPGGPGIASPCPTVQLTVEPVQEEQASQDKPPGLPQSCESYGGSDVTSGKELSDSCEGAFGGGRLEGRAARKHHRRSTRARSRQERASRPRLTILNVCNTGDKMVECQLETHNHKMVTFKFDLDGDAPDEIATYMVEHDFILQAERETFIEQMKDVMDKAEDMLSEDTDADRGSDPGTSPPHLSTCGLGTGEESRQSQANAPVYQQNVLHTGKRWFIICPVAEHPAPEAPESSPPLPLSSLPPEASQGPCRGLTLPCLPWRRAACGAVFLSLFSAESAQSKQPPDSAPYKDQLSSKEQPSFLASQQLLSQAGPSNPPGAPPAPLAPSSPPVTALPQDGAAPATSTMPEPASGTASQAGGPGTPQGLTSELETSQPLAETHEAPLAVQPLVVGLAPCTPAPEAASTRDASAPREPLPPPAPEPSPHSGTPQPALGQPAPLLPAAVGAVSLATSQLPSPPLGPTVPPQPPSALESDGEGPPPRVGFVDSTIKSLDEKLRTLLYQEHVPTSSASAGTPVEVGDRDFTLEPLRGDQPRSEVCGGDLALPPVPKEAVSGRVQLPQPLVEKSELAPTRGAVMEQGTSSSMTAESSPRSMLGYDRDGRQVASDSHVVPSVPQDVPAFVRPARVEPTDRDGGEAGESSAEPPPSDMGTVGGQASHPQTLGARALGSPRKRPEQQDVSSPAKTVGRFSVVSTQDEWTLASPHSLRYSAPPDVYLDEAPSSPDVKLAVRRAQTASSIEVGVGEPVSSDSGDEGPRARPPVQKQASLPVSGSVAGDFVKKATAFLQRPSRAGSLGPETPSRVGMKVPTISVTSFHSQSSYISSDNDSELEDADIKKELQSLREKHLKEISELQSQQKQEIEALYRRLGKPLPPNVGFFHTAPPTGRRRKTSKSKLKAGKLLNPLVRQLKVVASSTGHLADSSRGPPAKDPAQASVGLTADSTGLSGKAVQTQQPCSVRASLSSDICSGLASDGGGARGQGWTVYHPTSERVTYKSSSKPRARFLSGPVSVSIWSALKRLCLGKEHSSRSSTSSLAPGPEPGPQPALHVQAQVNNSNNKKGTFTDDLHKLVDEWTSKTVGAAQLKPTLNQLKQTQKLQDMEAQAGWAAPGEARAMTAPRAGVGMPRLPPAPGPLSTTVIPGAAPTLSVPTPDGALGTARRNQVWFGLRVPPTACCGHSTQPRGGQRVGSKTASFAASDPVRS
# Description: as §1
# [27] = biological target: TSSK2(h) (Homo sapiens (Human), UniProt Q96PF2)
# Chain of TSSK2(h) (Q96PF2 whole entry): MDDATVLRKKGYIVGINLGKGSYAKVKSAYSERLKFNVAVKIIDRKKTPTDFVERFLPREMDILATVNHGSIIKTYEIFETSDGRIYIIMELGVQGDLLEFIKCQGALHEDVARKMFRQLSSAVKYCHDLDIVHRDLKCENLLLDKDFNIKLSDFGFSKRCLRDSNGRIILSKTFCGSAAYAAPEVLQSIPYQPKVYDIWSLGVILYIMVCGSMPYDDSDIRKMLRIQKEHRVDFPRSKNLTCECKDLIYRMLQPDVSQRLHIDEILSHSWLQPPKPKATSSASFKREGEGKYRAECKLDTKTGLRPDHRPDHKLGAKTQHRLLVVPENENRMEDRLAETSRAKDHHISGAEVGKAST
# Description: as §1
# [28] = biological target: Tec(h) activated (Homo sapiens (Human), UniProt P42680)
# Description: as §1
# [29] = biological target: Plk4(h) (Homo sapiens (Human), UniProt O00444)
# Description: as §1
# [30] = biological target: DMPK(h) (Homo sapiens (Human), UniProt Q09013)
# Description: as §1
# [31] = biological target: PKCα(h) (Homo sapiens (Human), UniProt P17252)
# Description: as §1
# [32] = biological target: CDKL3(h) (Homo sapiens (Human), UniProt Q8IVW4)
# Description: as §1
# [33] = biological target: PI3 Kinase (p110a(H1047R)/p85a)(m) (Mus musculus (Mouse), UniProt P42337, H1047R)
# Description: as §1
# [34] = biological target: SAPK2b(h) (Homo sapiens (Human), UniProt Q15759)
# Description: as §1
structure (smiles),measurement,setting,value
"C[C@H](NC(=O)c1c[nH]c2ccc(-c3ccc4nc(NC(=O)C5CC5)sc4c3)cc12)c1cccc(F)c1 [Compound 34, (S)-5-(2-(cyclopropanecarboxamido)benzo[d]thiazol-6-yl)-N-(1-(3-fluorophenyl)ethyl)-1H-indole-3-carboxamide]",Inhibition ratio,[1],38%
same,Inhibition ratio,[2],23%
same,Inhibition ratio,[3],93%
same,Inhibition ratio,[4],102%
same,Inhibition ratio,[5],88%
same,Inhibition ratio,[6],4%
same,Inhibition ratio,[7],−2%
same,Inhibition ratio,[8],63%
same,Inhibition ratio,[9],14%
same,Inhibition ratio,[10],39%
same,Inhibition ratio,[11],−4%
same,Inhibition ratio,[12],107%
same,Inhibition ratio,[13],30%
same,Inhibition ratio,[14],88%
same,Inhibition ratio,[15],62%
same,Inhibition ratio,[16],10%
same,Inhibition ratio,[17],2%
same,Inhibition ratio,[18],13%
same,Inhibition ratio,[19],31%
same,Inhibition ratio,[20],19%
same,Inhibition ratio,[21],6%
same,Inhibition ratio,[22],47%
same,Inhibition ratio,[23],55%
same,Inhibition ratio,[24],35%
same,Inhibition ratio,[25],75%
same,Inhibition ratio,[26],38%
same,Inhibition ratio,[27],−6%
same,Inhibition ratio,[28],17%
same,Inhibition ratio,[29],14%
same,Inhibition ratio,[30],10%
same,Inhibition ratio,[31],6%
same,Inhibition ratio,[32],51%
same,Inhibition ratio,[33],17%
same,Inhibition ratio,[34],12%
"C[C@H](NC(=O)c1cn(C)c2ccc(-c3ccn4nc(NC(=O)C5CC5)nc4c3)cc12)c1cccc(F)c1 [Compound 94, (S)-5-(2-(cyclopropanecarboxamido)-[1,2,4]triazolo[1,5-a]pyridin-7-yl)-N-(1-(3-fluorophenyl)ethyl)-1-methyl-1H-indole-3-carboxamide]",Inhibition ratio/%,[1],15%
same,Inhibition ratio/%,[2],46%
same,Inhibition ratio/%,[3],53%
same,Inhibition ratio/%,[4],32%
same,Inhibition ratio/%,[5],18%
same,Inhibition ratio/%,[6],−16%
same,Inhibition ratio/%,[7],27%
same,Inhibition ratio/%,[8],40%
same,Inhibition ratio/%,[9],23%
same,Inhibition ratio/%,[10],−4%
same,Inhibition ratio/%,[11],−5%
same,Inhibition ratio/%,[12],−11%
same,Inhibition ratio/%,[13],27%
same,Inhibition ratio/%,[14],13%
same,Inhibition ratio/%,[15],6%
same,Inhibition ratio/%,[16],47%
same,Inhibition ratio/%,[17],46%
same,Inhibition ratio/%,[18],−10%
same,Inhibition ratio/%,[19],−18%
same,Inhibition ratio/%,[20],66%
same,Inhibition ratio/%,[21],74%
same,Inhibition ratio/%,[22],2%
same,Inhibition ratio/%,[23],4%
same,Inhibition ratio/%,[24],44%
same,Inhibition ratio/%,[25],−3%
same,Inhibition ratio/%,[26],6%
same,Inhibition ratio/%,[27],52%
same,Inhibition ratio/%,[28],−20%
same,Inhibition ratio/%,[29],15%
same,Inhibition ratio/%,[30],−2%
same,Inhibition ratio/%,[31],16%
same,Inhibition ratio/%,[32],−5%
same,Inhibition ratio/%,[33],47%
same,Inhibition ratio/%,[34],36%
